Results from BindingDB's records for doi:10.1021/jm030050p (Johnson & Johnson Pharmaceutical Research & Development, 2003).
Where a name gives a salt, the structure may show the parent alone.

Biological target: Trypsin (Bos taurus)
Test: In vitro inhibition of bovine trypsin.

Ki [nM] | Structure (SMILES)
16 | CC(=O)N1C[C@H](O)C[C@H]1C(=O)NC(CCCN)C(=O)c1nc2ccccc2s1 (some centres not stated) [1-Acetyl-4-hydroxy-pyrrolidine-2-carboxylic acid [4-amino-1-(benzothiazole-2-carbonyl)-butyl]-amide; TFA]
38 | COS(=O)(=O)N1CCC[C@H]1C(=O)N[C@@H](CCCNC(=N)N)C(=O)c1nc2ccccc2s1 [2-[1-(Benzothiazole-2-carbonyl)-4-guanidino-butylcarbamoyl]-pyrrolidine-1-sulfonic acid methyl ester; TFA]
